Measured values published in PMC6099102, “Effect of the Nature of Donor Atoms on the Thermodynamic, Kinetic and Relaxation Properties of Mn(II) Complexes Formed With Some Trisubstituted 12-Membered Macrocyclic Ligands” (Frontiers in Chemistry, 2018).

Experiment: Stability and protonation constants and pMn of the Mn(II) complexes (pH-potentiometry and/or 1H relaxometry)
Assay type: physicochemical
Conditions: I = 0.15 M NaCl, 25 °C; for pMn: calculated at pH = 7.4, cM = cL = 10^−5 M; for log KMLH: protonation constant of the Mn(II) complex
Experimental: The concentration of the ligand solutions was determined by pH-potentiometric titration in the presence and absence of an excess (5–10 fold) of MnCl2. For determining the protonation constants of the investigated ligands, pH-potentiometric titrations were made by means of 0.2 M standardized NaOH in 2 and 3 mM ligand solutions in the pH-range of 1.75–11.85. All equilibrium measurements were performed at a constant 0.15 M NaCl ionic strength at 25 °C. The protonation and the stability constants of the Mn(II) complexes were determined by pH-potentiometric titrations (DOTP, DO3A, PCTA, ODO3A, DO3P) while owing to the slow formation rates of Mn(II) complexes formed with amide type ligands, the stability constants of DOTAM, DOTMA, DO3AM^H, PC3AM^H, PC3AM^Gly, PC3AM^Pip complexes were determined by out-of-cell pH-potentiomertry in combination with ^1H relaxometry. The metal-to-ligand concentration ratio in the solutions was 1:1. For the calculation of protonation constants of the ligands and the log KMnL and log KMnLHi values of the complexes, mL–pH data pairs (50–180), obtained in the pH range of 1.75–11.85 or r1obs-pH data pairs (10–15 batch samples) obtained in the pH range of 2–4.5 were used (the samples were equilibrated for 4–7 days). The equilibrium constants characterizing the deprotonation that occurs at basic pH were determined from the data obtained via direct pH-potentiometric titrations performed on the pre-formed complexes.
The pH-potentiometric titrations were carried out with a Methrohm 888 Titrando titration workstation using a Metrohm-6.0233.100 combined electrode. The samples (6.00 mL) were thermostated at 25 °C. The samples were stirred and kept under inert gas (N2) to avoid the effect of CO2. KH-phthalate (pH = 4.005) and borax (pH = 9.177) buffers were used for the pH-calibration. The method proposed by Irving et al. was used for the calculation of H^+ concentrations from the measured pH values (Irving et al., [1967]). A 0.01 M HCl (I = 0.15 M set with NaCl) solution was titrated with standardized NaOH solution of known concentration (approx. 0.2 M). The correction factor obtained as difference of calculated pH and measured pH values was used to calculate the [H^+] in the samples. The ionic product of water was determined from the same titrations (HCl/NaOH) from the data collected in the pH range of 11.20–11.85.
The relaxometric data were collected using a Bruker Minispec MQ20 NMR relaxometer. […] A datapoint plotted on figures represents an average of 5–6 T1 measurements (Figures S3–S9 in Supplementary Material). The data were fitted by using the molar r1p relaxivity value of the MnCl2 ([…] at 0.49 T and 25 °C). The equilibrium constants were calculated using the PSEQUAD program (Zékány and Nagypál, [1985]).
In order to gain information on the thermodynamic stability of the Mn(II) complexes, samples containing the metal and ligand in 1 to 1 molar ratio were studied by pH potentiometry or ^1H-relaxometry and in some cases by a combination of the two methods. The titration data were fitted by assuming the existence of [M(L)] and some protonated species ([M(HiL)]) at lower pH values. In some cases to fit the data obtained at higher pH, the formation of ternary hydroxido complexes ([M(L)(OH)]) were also included in the equilibrium model. The stability constants (KML) and the various protonation forms (KMHiL) of ML metal chelates are defined by Equations (3)–(5). However, a comparison of the stabilities of different complexes solely on the basic of their stability constants might be misleading because of the differences in ligand basicities. […] The pMn value accounts for the effect of proton competition (ligand basicity and complex protonation) on the stability constant essentially offering the same information as the conditional stability constant. Higher pMn values indicate a higher chelate stability at specified conditions. […]

[1] = stability constant of the Mn(II) complex by 1H-relaxometry
[2] = stability constant of the Mn(II) complex

Row | pMn | log KMLH | log KML [1] | log KML [2] | log KMLOH (ternary hydroxido complex of Mn(II)) | log KMHLH (second protonation constant of the Mn(II) complex) | log KMH2LH (third protonation constant of the Mn(II) complex) | Compound
1 | 9.74 | 1.96(1) | 16.64 (7) | 16.83 (1) |  |  |  | O=C(O)CN1CCN(CC(=O)O)Cc2cccc(n2)CN(CC(=O)O)CC1 [PCTA]
2 | 7.77 |  | 11.78 (8) | 11.94(3) | 10.90 (4) |  |  | NC(=O)CN1CCN(CC(N)=O)Cc2cccc(n2)CN(CC(N)=O)CC1 [PC3AM^H]
3 | 6.43 | 8.06 (2) |  | 17.45 (2) |  | 7.05 (1) | 5.31 (2) | O=P(O)(O)CN1CCNCCN(CP(=O)(O)O)CCN(CP(=O)(O)O)CC1 [DO3P]
4 | 8.66 | 4.26 (2) |  | 16.55 (4) |  |  |  | O=C(O)CN1CCNCCN(CC(=O)O)CCN(CC(=O)O)CC1 [DO3A]
5 | 8.86 |  |  |  |  |  |  | O=C(CN1CCN(CC(=O)N2CCCCC2)Cc2cccc(n2)CN(CC(=O)N2CCCCC2)CC1)N1CCCCC1.[Mn+2] [[Mn(PC3AM^Pip)]^2+]
